Experimental data as given in US9493432B2, “Cyclopentylbenzamide derivatives and their use for the treatment of psychotic and cognitive disorders” (Takeda Pharmaceutical Company Limited, priority 2013, dated 2016).

How the values were obtained:
[1] = target: human orexin receptor 2 (Homo sapiens (Human), UniProt O43614); assay: Orexin antagonist activity, intracellular calcium FLIPR assay (orexin receptor 2); assay type: cell-based; details: RBL-2H3 cells stably expressing human orexin receptor 2; Ca2+ dye FLIPR; compound 15 minutes before orexin-A at approximately 80% maximal response; read-out: Human Orexin2R IC50
Sequence of human orexin receptor 2 (O43614 whole entry): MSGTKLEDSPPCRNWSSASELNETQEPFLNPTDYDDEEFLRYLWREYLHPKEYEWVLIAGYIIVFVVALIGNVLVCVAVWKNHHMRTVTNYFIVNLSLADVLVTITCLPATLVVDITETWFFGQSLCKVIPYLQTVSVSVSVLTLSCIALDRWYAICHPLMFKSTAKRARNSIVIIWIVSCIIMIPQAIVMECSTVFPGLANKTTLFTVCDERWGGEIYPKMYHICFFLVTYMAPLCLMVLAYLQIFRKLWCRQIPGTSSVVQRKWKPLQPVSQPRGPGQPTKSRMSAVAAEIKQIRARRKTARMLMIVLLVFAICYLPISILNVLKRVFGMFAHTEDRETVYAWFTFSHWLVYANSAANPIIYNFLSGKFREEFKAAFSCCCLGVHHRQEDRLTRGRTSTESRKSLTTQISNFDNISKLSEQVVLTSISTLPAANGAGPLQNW
Method: (§1) Orexin antagonist activity was determined by measuring changes in intracellular calcium levels using a Ca^2+ sensitive fluorescent dye. The changes in fluorescent signal were monitored by Fluorescent Imaging Plate Reader (FLIPR™) technology available from Molecular Devices, LLC, U.S.A. Orexin mediated increases in intracellular Ca^2+ concentration were readily detected upon activation with orexin-A. Twenty-four hours prior to the assay, RBL-2H3 cells stably expressing either human orexin receptor 1 or human orexin receptor 2 were seeded in cell culture medium in black, clear-bottom 384-well plates (commercially available from Corning Inc., U.S.A.) and grown overnight at 37° C., 5% CO2. On the day of the assay, cell culture media was removed and cells were loaded with Calcium 5 Dye (commercially sold by Molecular Devices, LLC, U.S.A.) for 1 hour at 37° C., 5% CO2. Test compounds (at 10 point half log concentration response curves from 10 μM) were added to cells for 15 minutes prior to the addition of orexin-A to all wells, to achieve a final concentration that produces approximately an 80% maximal response. The IC50 values were determined from ten point concentration response curves. Curves were generated using the average of two wells for each data point.

[2] = target: human orexin receptor 1 (Homo sapiens (Human), UniProt O43613); assay: Orexin antagonist activity, intracellular calcium FLIPR assay (orexin receptor 1); assay type: cell-based; details: RBL-2H3 cells stably expressing human orexin receptor 1; Ca2+ dye FLIPR; compound 15 minutes before orexin-A at approximately 80% maximal response; read-out: Human Orexin1R IC50
Sequence of human orexin receptor 1 (O43613 whole entry): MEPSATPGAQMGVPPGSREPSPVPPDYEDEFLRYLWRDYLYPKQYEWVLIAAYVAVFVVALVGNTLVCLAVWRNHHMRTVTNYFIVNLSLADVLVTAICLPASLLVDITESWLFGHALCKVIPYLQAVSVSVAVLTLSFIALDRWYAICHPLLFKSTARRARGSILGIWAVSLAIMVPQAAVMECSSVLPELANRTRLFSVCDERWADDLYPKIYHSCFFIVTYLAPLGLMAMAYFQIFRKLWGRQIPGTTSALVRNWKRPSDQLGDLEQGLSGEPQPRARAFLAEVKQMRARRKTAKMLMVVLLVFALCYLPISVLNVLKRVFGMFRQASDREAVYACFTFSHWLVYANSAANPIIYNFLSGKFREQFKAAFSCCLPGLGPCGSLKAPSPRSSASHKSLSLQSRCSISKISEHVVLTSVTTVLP
Method: as §1

Row | IC50 [1] | IC50 [2] | Molecule
1 | > 10000 nM | 29 nM | COc1cccc(OC)c1C(=O)N[C@@H]1COC[C@H]1Nc1nc2ccc(F)cc2s1 (relative stereo) [Example 65, trans-N-{4-[(6-Fluoro-1,3-benzothiazol-2-yl)amino]oxolan-3-yl}-2,6-dimethoxybenzamide]
2 | > 10000 nM | 79 nM | Cc1ccc(-n2nccn2)c(C(=O)N[C@@H]2COC[C@@H]2Cc2nc3ccccc3s2)c1 (relative stereo) [Example 102, cis-N-[4-(1,3-Benzothiazol-2-ylmethyl)oxolan-3-yl]-5-methyl-2-(2H-1,2,3-triazol-2-yl)benzamide]
3 | > 10000 nM | 35 nM | Cc1ccc(-n2nccn2)c(C(=O)NC2CCCC2Cc2ccc3ccccc3n2)c1 (single isomer, unassigned) [Example 61, 5-Methyl-N-[2-(quinolin-2-ylmethyl)cyclopentyl]-2-(2H-1,2,3-triazol-2-yl)benzamide]
4 | > 10000 nM | > 10000 nM | Cc1ccc(-n2nccn2)c(C(=O)NC2CCCC2Cc2ccc3ccccc3n2)c1 (single isomer, unassigned) [Example 62, 5-Methyl-N-[2-(quinolin-2-ylmethyl)cyclopentyl]-2-(2H-1,2,3-triazol-2-yl)benzamide]
5 | > 10000 nM | 22 nM | O=C(NC1COCC1Nc1nc2ccc(F)cc2s1)c1ccccc1-n1nccn1 (single isomer, unassigned) [Example 100, trans-N-{4-[(6-Fluoro-1,3-benzothiazol-2-yl)amino]oxolan-3-yl}-2-(2H-1,2,3-triazol-2-yl)benzamide]
6 | 3800 nM | 730 nM | O=C(NC1COCC1Nc1nc2ccc(F)cc2s1)c1ccccc1-n1nccn1 (single isomer, unassigned) [Example 101, trans-N-{4-[(6-Fluoro-1,3-benzothiazol-2-yl)amino]oxolan-3-yl}-2-(2H-1,2,3-triazol-2-yl)benzamide]
7 | 627 nM | 266 nM | O=C(NC1CC(F)(F)CC1Nc1nc2ccc(F)cc2s1)c1ccccc1-n1nccn1 (single isomer, unassigned) [Example 103, N-{4,4-Difluoro-2-[(6-fluoro-1,3-benzothiazol-2-yl)amino]cyclopentyl}-2-(2H-1,2,3-triazol-2-yl)benzamide]
8 | 4500 nM | 13 nM | O=C(NC1CC(F)(F)CC1Nc1nc2ccc(F)cc2s1)c1ccccc1-n1nccn1 (single isomer, unassigned) [Example 104, N-{4,4-Difluoro-2-[(6-fluoro-1,3-benzothiazol-2-yl)amino]cyclopentyl}-2-(2H-1,2,3-triazol-2-yl)benzamide]
9 | 3540 nM |  | O=C(NC1CC(F)(F)CC1Nc1nc2ccc(Cl)cc2s1)c1ccccc1-n1nccn1 (single isomer, unassigned) [Example 105, N-{2-[(6-Chloro-1,3-benzothiazol-2-yl)amino]-4,4-difluorocyclopentyl}-2-(2H-1,2,3-triazol-2-yl)benzamide]
10 | 441 nM |  | O=C(NC1CC(F)(F)CC1Nc1nc2ccc(Cl)cc2s1)c1ccccc1-n1nccn1 (single isomer, unassigned) [Example 106, N-{2-[(6-Chloro-1,3-benzothiazol-2-yl)amino]-4,4-difluorocyclopentyl}-2-(2H-1,2,3-triazol-2-yl)benzamide]
11 | 130 nM | 340 nM | COc1cccc(OC)c1C(=O)NC1C[C@@H](O)CC1Nc1nc2ccc(Cl)cc2s1 (stereo in doubt) [Example 25, N-[(1S,2R,4R)-2-[(6-Chloro-1,3-benzothiazol-2-yl)amino]-4-hydroxycyclopentyl]-2,6-dimethoxybenzamide]
12 | > 10000 nM | 64 nM | COc1cccc(OC)c1C(=O)N[C@H]1CC(F)C[C@H]1Nc1nc2ccc(Cl)cc2s1 (stereo in doubt) [Example 26, N-[(1S,2R)-2-[(6-Chloro-1,3-benzothiazol-2-yl)amino]-4-fluorocyclo-pentyl]-2,6-dimethoxybenzamide]
13 | 4000 nM | 250 nM | Cc1ccccc1C(=O)NC1CCC[C@@H]1Nc1nc2ccc(F)cc2s1 (stereo in doubt) [Example 51, N-[(1S,2S)-2-[(6-Fluoro-1,3-benzothiazol-2-yl)amino]cyclopentyl]-2-methylbenzamide]
14 |  | 270 nM | O=C(NC1CCC[C@@H]1Nc1nc2ccc(F)cc2s1)c1c(Cl)cccc1Cl (stereo in doubt) [Example 52, 2,6-Dichloro-N-[(1S,2S)-2-[(6-fluoro-1,3-benzothiazol-2-yl)amino]-cyclopentyl]benzamide]
15 | 260 nM | 5 nM | O=C(N[C@H]1CCCC1Nc1nc2ccc(F)cc2s1)c1ccccc1-n1nccn1 (stereo in doubt) [Example 75, N-[(1S,2R)-2-[(6-Fluoro-1,3-benzothiazol-2-yl)amino]cyclopentyl]-2-(2H-1,2,3-triazol-2-yl)benzamide]
16 | > 10000 nM | 780 nM | O=C(NC1CCC[C@@H]1Nc1nc2ccncc2s1)c1ccccc1-n1nccn1 (stereo in doubt) [Example 97, N-[(1S,2S)-2-({[1,3]Thiazolo[5,4-c]pyridin-2-yl}amino)cyclopentyl]-2-(2H-1,2,3-triazol-2-yl)benzamide]
17 | > 10000 nM | 12 nM | Cc1noc(-c2ccccc2C(=O)NC2CCC[C@@H]2Nc2nc3ccc(F)cc3o2)n1 (stereo in doubt) [Example 99, N-[(1S,2S)-2-[(6-Fluoro-1,3-benzoxazol-2-yl)amino]cyclopentyl]-2-(3-methyl-1,2,4-oxadiazol-5-yl)benzamide]
18 | 98 nM | 0.84 nM | COc1cccc(OC)c1C(=O)N[C@H]1CCC[C@H]1Nc1cnc2ccccc2n1 [Example 1, 2,6-Dimethoxy-N-[(1S,2R)-2-[(quinoxalin-2-yl)amino]cyclopentyl]-benzamide]
19 | 6500 nM | 36 nM | COc1cccc(OC)c1C(=O)N[C@H]1CCC[C@@H]1Nc1cnc2ccccc2n1 [Example 2, 2,6-Dimethoxy-N-((1S,2S)-2-(quinoxalin-2-ylamino)cyclopentyl)benzamide]
20 | 7600 nM | 4.2 nM | COc1cccc(OC)c1C(=O)N[C@H]1CCC[C@@H]1Nc1nc2ccc(F)cc2s1 [Example 3, N-[(1S,2S)-2-[(6-Fluoro-1,3-benzothiazol-2-yl)amino]cyclopentyl]-2,6-dimethoxybenzamide]
21 | > 10000 nM | 12 nM | COc1cccc(OC)c1C(=O)N[C@H]1CCC[C@@H]1Nc1nc2ccccc2s1 [Example 4, N-[(1S,2S)-2-[(1,3-Benzothiazol-2-yl)amino]cyclopentyl]-2,6-dimethoxybenzamide]
22 | 510 nM | 12 nM | COc1cccc(OC)c1C(=O)N[C@H]1CCC[C@H]1Nc1nc2ccccc2s1 [Example 5, N-[(1S,2R)-2-[(1,3-Benzothiazol-2-yl)amino]cyclopentyl]-2,6-dimethoxybenzamide]
23 |  | 51 nM | Cc1ccc(-n2nccn2)c(C(=O)NC2CCCC2Cc2nc3ccc(Cl)cc3s2)c1 (centres unmarked) [Example 33, N-{2-[(6-Chloro-1,3-benzothiazol-2-yl)methyl]cyclopentyl}-5-methyl-2-(2H-1,2,3-triazol-2-yl)benzamide]
24 |  | 24 nM | O=C(N[C@H]1CCC[C@@H]1Nc1nc2ccc(F)cc2s1)c1cc(F)ccc1-c1ncccn1 [Example 42, 5-Fluoro-N-[(1S,2S)-2-[(6-fluoro-1,3-benzothiazol-2-yl)amino]cyclopentyl]-2-(pyrimidin-2-yl)benzamide]
25 |  | 80 nM | O=C(N[C@H]1CCC[C@@H]1Nc1nc2ccc(F)cc2s1)c1cc(F)ccc1-n1ccnn1 [Example 45, 5-Fluoro-N-[(1S,2S)-2-[(6-fluoro-1,3-benzothiazol-2-yl)amino]cyclopentyl]-2-(1H-1,2,3-triazol-1-yl)benzamide]
26 |  | 470 nM | O=C(N[C@H]1CCC[C@@H]1Nc1nc2ccc(F)cc2s1)c1ccccc1OC(F)F [Example 55, 2-(Difluoromethoxy)-N-[(1S,2S)-2-[(6-fluoro-1,3-benzothiazol-2-yl)amino]-cyclopentyl]benzamide]
27 |  | 540 nM | COc1cccc(C(=O)N[C@H]2CCC[C@@H]2Nc2nc3ccc(F)cc3s2)c1 [Example 56, N-[(1S,2S)-2-[(6-Fluoro-1,3-benzothiazol-2-yl)amino]cyclopentyl]-3-methoxybenzamide]
28 |  | 780 nM | Cc1cccc(C(=O)N[C@H]2CCC[C@@H]2Nc2nc3ccc(F)cc3s2)c1 [Example 57, N-[(1S,2S)-2-[(6-Fluoro-1,3-benzothiazol-2-yl)amino]cyclopentyl]-3-methylbenzamide]
29 |  | 870 nM | O=C(N[C@H]1CCC[C@@H]1Nc1nc2ccc(F)cc2s1)c1ccccc1C1CC1 [Example 58, 2-Cyclopropyl-N-[(1S,2S)-2-[(6-fluoro-1,3-benzothiazol-2-yl)amino]-cyclopentyl]benzamide]
30 | 4700 nM |  | O=C(N[C@H]1CCC[C@@H]1Nc1nc2ccc(Cl)cc2s1)c1ccccc1-n1nccn1 [Example 91, N-[(1S,2S)-2-[(6-Chloro-1,3-benzothiazol-2-yl)amino]cyclopentyl]-2-(2H-1,2,3-triazol-2-yl)benzamide]

Row | Molecule | IC50 [1] | IC50 [2]
31 | 5-Methyl-N-((1S,2S)-2-(quinoxalin-2-ylamino)cyclopentyl)-2-(2H-1,2,3-triazol-2-yl) benzamide [Example 21] | 5100 nM | 
